Patent publication US20080311613A1, “ARTIFICIAL SKIN SURFACE FILM LIQUIDS” (The Government of the U.S.A. as represented by the …, priority 2007, published 2008)
In brackets after ≈: the same amount, converted by molar mass. Read-outs that look alike come from different tables or passages of the source.

Columns and labels:
[1] = water, cited from earlier work
physchem = conditions: artificial sweat, 36 °C
Description: (§1) This large initial volume was useful in promoting dissolution of the constituents of the artificial sweat. […] Next, the desired masses of electrolytes and other ionic constituents (see Table 2) were added to the flask. Upon addition of the electrolytes and ionic constituents, the concentrations of chloride, calcium, and iron were measured to assess whether they matched predictions from weighing: 1.67×10^−2 M chloride, 6.93×10^−3 M calcium, and 0.54 ppm iron. Next, organic acids and carbohydrates were added to the solution (see Table 2) and the stability of chloride, calcium, and iron concentrations verified. Amino acids were added (see Table 2) then calcium and iron concentrations verified; chloride ion concentration was measured to determine if it matched the predicted value (1.7×10^−2 M) from weighing electrolytes, ionic constituents, and hydrogen chloride salts of some amino acids. Nitrogenous substances were added (see Table 2) and chloride, calcium, and iron concentrations re-verified.
(§2) Vitamin constituents were added to the solution last (see Table 2).
(§3) The pH of the artificial sweat solution was raised from 3.8 (as prepared) to a final pH of 5.3 by adding 5 M sodium hydroxide dropwise while monitoring using a calibrated pH electrode (InLab 413, Mettler-Toledo, Schwerzenbach, Switzerland) connected to a multi-meter (Seven Multi, Mettler-Toledo). […] The final volume of the solution was then brought up to 1.0 L using 18 megohm-cm distilled and deionized water and the final pH verified. To minimize opportunity for microbial growth, the final sweat solution was filtered through a 0.2 μm pore size filter (Cat. No. SCGVU11RE, Millipore Corp., Billerica, Mass.).

[2] = Dissolution of vitamin constituents during preparation of artificial sweat; conditions: for dissolution on addition to the artificial sweat solution: before pH adjustment (pH 3.8 as prepared), 36° C.
Description: as §1, §2, §3

[3] = Long-term stability of artificial sebum by thin-layer chromatography; type: physicochemical; conditions: dry at 32° C., absence of vitamin E
Description: Lipids and formulation of synthetic sebum. Cholesteryl oleate, oleoyl oleate, palmityl palmitate, cholesterol and vitamin E ((±)-α-tocopherol) were purchased from Sigma-Aldrich (St. Louis, Mo.). Squalene and stearic acid were from Acros Organics (Geel, Belgium). Triolein and tristearin were purchased from MP Biochemicals (Solon, Ohio), and oleic acid was from Fisher Scientific (Fairlawn, N.J.). […] All nine lipids were dissolved in a 2:1 co-solvent mixture of chloroform and methanol and divided into two portions, one of which received vitamin E at 0.1% by weight to mimic human sebum content. After combining and mixing, portions of lipid solution were transferred to 16×125 mm glass tubes equipped with Teflon-lined screw caps. One set of tubes with lipid solution was maintained at 4° C. to characterize storage using refrigeration. […]
Thin-layer chromatography. All samples were analyzed using thin layer chromatography. Glass plates (20×20 cm) coated with 0.25-mm-thick silica gel G (Adsorbosil-plus-1; Alltech Associates; Deerfield Ill.) were washed with chloroform:methanol, 2:1, activated in a 110° C. oven, and the adsorbent was scored into 6-mm-wide lanes. […] After two hrs, charring was complete, and the chromatograms were quantitated by photodensitometry. […]

In the case of `Cc1cc2nc3c(=O)[nH]c(=O)nc-3n(C[C@H](O)[C@H](O)[C@H](O)CO)c2cc1C` [riboflavin, Riboflavin (C17H20N4O6)], the solubility [1] is given as 0.3 mg/mL (≈ 797 µM), the solubility (physchem) is given as no less than 2000 µM and the “concentration in artificial sweat relative to that predicted by solubility in water” value ([2]; artificial sweat vs water) is given as “two orders of magnitude greater”.
In the case of `CC(C)(CO)[C@@H](O)C(=O)NCCC(=O)O` [pantothenic, D-Pantothenic Acid (C9H17NO5)], the “dissolution on addition to the artificial sweat solution” value [2] is reported as “did not dissolve completely”.
For `CC(C)=CCC/C(C)=C/CC/C(C)=C/CC/C=C(\C)CC/C=C(\C)CCC=C(C)C` [squalene], the “day by which completely oxidized” value [3] was no more than 21 days.
For `O=C(O)c1cccnc1` [nicotinic acids, Nicotinic Acid (C6H5NO2)], the “dissolution on addition to the artificial sweat solution” value [2] was “did not dissolve completely”.
In the case of `Cc1cc2nc3c(=O)[nH]c(=O)nc-3n(C[C@H](O)[C@H](O)[C@H](O)COP(=O)(O)O)c2cc1C` [riboflavin 5′-(dihydrogen phosphate), reference compound], the solubility ([1]; pH=5.6) is listed as 68 mg/mL.
